Source: EP0488169A1, “Beta-Hydroxyethylamines with a 1,1-disubstituted cyclopropyl-group, process for their preparation and use” (HOECHST AKTIENGESELLSCHAFT, priority 1990, dated 1992)

How the values were obtained:
Candida albicans = experiment: Systemic Candida albicans infection in the mouse, survival time, combination therapy with Fluconazol; assay type: in vivo, Maus; conditions: for Überlebenszeit (bez. auf Fluconazol = 100 %): mice infected i.v. with C. albicans, Fluconazol 9 x p.o. 50 mg/kg/day, combination partner 14 x p.o. 50 mg/kg/day
Description: Als Beispiele für die systemische in vivo-Wirksamkeit der Verbindungen dient die systemische Candida albicans Infektion bei der Maus.
Ziel dieser Methode ist es, den Effekt von Präparaten auf eine systemische Candida albicans Infektion zu ermitteln. Die Infektion führt innerhalb von 2-4 Tagen zum Tod der Tiere.
Beschreibung der Methode: Albino Mäuse (NMRI, Männchen, 15-20 g Körpergewicht) werden intravenös mit Candida albicans Hefezellen infiziert (Stamm 200/175), die frisch auf Malzagar vorkultiviert wurden und in physiologischer Kochsalzlösung suspendiert wurden. Die Infektionsdosis, die in dem angegebenen Zeitrahmen zur Lethalität führt, wurde photometrisch eingestellt und enthielt eine Million Hefezellen pro Maus.
Die zu prüfenden Verbindungen werden entweder alleine oder in Kombination mit einem Standardantimykotikum verabreicht. Im durchgeführten Test wurde ein Kombinationspräparat verwendet, wobei als Standardantimykotikum Fluconazol (Fa. Pfizer) diente. Applikationswege sind je nach Substanzgruppe unterschiedlich, wobei der oralen Applikation der Vorzug gegeben wird. Die Mäuse werden 4 Wochen beobachtet, die Mortalität wird täglich registriert, und die Überlebenszeiten der einzelnen Gruppen werden gemittelt und untereinander verglichen. Gruppengröße beträgt durchschnittlich 10 Tiere.
Der Vergleich der Mittelwerte geschieht mit dem Students T Test.
Dosierungen: Fluconazol jeweils 9 x p.o. 50 mg/kg/Tag Kombinationspartner jeweils 14 x p.o. 50 mg/kg /Tag

[1] = test system: Trichophyton Mentagrophytes; experiment: Fungicidal (killing) effect on resting stages (microconidia) of Trichophyton Mentagrophytes, overnight incubation in aqua dest., survival after wash-out; assay type: cell-based; conditions: read-out: Fungizidie (pilzabtötende Wirkung)
Description: Die Fungizide (pilzabtötende Wirkung) der Verbindungendes Typs der Formel I wird bestimmt, indem Ruhestadien (Vermehrungsform ist gleich Mikrokonidien) des Pilzes Trichophyton Mentagrophytes in aqua dest. über Nacht inkubiert werden. Nach Auswaschen des Präparats (vgl. H. Hänel und W. Raether in mycoses 31 (3), 148-154 (1988)) wird auf Überleben der Pilze geprüft.
Einige auf diese Weise bestimmte Werte sind in Tabelle 4 wiedergegeben (Vergleichspräparat ist Rilopirox).

[2] = test system: Phospholipase aus Leberzellen; conditions: phospholipase from liver cells; Biochem. Pharmacol. 34, 521-24, 1985; cited from earlier work

| SMILES | Verlängerung der Überlebenszeit (Candida albicans; combination therapy with Fluconazol versus Fluconazol monotherapy, compound 14 x 50 mg/kg p.o. once daily) [%] | Überlebenszeit (bez. auf Fluconazol = 100 %) (Candida albicans) [%] | killing at 10 µg/mL [1] [%] | killing at 20 µg/mL [1] [%] | killing at 40 µg/mL [1] [%] | killing at 80 µg/mL [1] [%] | Hemmwirkung [2] | killing at 5 µg/mL [1] [%] |
| --- | --- | --- | --- | --- | --- | --- | --- | --- |
| CCCCNCC(O)(c1ccc(Cl)cc1)C1(SCc2ccc(Cl)cc2)CC1 (stereo not shown) [Verbindung 1.4] | 57 | 157 | – | – | – | – | – | – |
| CCCCNCC(O)(c1ccc(Cl)cc1)C1(SCc2ccc(C(C)(C)C)cc2)CC1 (stereo not shown) [Verbindung 1.29] | – | – | 99.7 | 100 | 100 | 100 | – | – |
| CC(C)(C)NCC(O)(c1ccc(Cl)cc1)C1(SCc2ccc(C(C)(C)C)cc2)CC1 (stereo not shown) [Verbindung 1.36] | – | – | 96.5 | 100 | 100 | 100 | – | – |
| OC(Cn1cncn1)(Cn1cncn1)c1ccc(F)cc1F [Fluconazol, reference compound] | – | 100 | – | – | – | – | – | – |
| CC(C)(C)NCC(O)(c1ccc(Cl)cc1)C1(SCc2ccc(Cl)cc2F)CC1 (stereo not shown) [Verbindung 1.44] | – | – | 99.1 | 100 | 100 | 100 | – | – |
| CCCCNCC(O)(c1ccc(C)cc1)C1(SCc2cccc(C(F)(F)F)c2)CC1 (stereo not shown) [Verbindung 1.48] | – | – | 99.4 | 100 | 100 | 100 | – | – |
| CC(C)NCC(O)COc1cccc2ccccc12 (stereo not shown) [Propranolol] | – | – | – | – | – | – | wirksamste Substanz | – |
| CC(C)NCC(O)(c1ccc(Cl)cc1)C1(SCc2cccc(C(F)(F)F)c2)CC1 (stereo not shown) [Verbindung 1.17] | – | – | 96.9 | 100 | 100 | 100 | – | – |
| CC(C)OCCCNCC(O)(c1ccc(Cl)cc1)C1(SCc2ccc(C(C)(C)C)cc2)CC1 (stereo not shown) [Verbindung 1.35] | – | – | 100 | 100 | 100 | 100 | – | 99.3 |
| Cc1cc(COc2ccc(Oc3ccc(Cl)cc3)cc2)n(O)c(=O)c1 [Rilopirox, reference compound] | – | – | 100 | 100 | 100 | 100 | – | 96.2 |
